Measurements as given in patent US20110230476A1, “PI3 KINASE INHIBITORS AND USES THEREOF” (AVILA THERAPEUTICS, INC., priority 2009, published 2011).
Entries after “also recorded” stand apart in the source; their conditions may differ.

Legend:
[1] = biological target: T1, PI3Kα (p110α/p85α) (Homo sapiens, UniProt P42336); assay: HTRF assay, potency against active PI3Kα; type: biochemical; details: HTRF; [ATP]=50 μM, [di-C8-PIP2]=10 μM; 30 min pre-incubation; read-out: PI3Kα Inhibition
T1 construct: purchased BPS Bioscience (San Diego, Calif.) or Millipore (Billerica, Mass.)
T1 sequence (P42336 whole entry): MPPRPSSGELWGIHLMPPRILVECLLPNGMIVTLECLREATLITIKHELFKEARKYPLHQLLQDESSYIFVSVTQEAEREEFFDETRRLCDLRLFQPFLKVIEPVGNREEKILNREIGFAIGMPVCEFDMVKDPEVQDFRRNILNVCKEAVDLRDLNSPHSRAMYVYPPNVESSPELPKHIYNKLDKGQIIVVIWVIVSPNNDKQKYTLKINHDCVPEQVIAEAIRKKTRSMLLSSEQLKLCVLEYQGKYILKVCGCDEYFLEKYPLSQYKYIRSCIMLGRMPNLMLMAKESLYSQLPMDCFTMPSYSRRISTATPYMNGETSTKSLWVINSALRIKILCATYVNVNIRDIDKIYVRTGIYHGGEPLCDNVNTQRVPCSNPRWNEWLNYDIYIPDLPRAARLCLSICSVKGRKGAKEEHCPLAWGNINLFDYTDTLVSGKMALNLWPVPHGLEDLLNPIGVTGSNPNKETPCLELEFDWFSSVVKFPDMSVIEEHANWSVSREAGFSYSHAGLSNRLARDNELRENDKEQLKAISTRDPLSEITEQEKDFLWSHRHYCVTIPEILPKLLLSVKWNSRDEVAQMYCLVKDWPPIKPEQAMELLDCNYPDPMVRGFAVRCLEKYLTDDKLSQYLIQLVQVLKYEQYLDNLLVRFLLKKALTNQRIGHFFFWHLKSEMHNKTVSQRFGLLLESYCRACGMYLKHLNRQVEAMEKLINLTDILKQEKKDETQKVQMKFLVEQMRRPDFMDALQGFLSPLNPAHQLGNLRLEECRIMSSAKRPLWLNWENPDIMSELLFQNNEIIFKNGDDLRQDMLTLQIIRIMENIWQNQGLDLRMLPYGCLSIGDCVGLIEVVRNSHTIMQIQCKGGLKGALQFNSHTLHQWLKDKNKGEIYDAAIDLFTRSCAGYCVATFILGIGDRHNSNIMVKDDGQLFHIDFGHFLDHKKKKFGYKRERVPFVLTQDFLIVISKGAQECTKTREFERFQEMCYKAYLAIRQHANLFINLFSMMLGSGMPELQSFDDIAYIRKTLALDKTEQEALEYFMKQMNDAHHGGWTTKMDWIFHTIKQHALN
T1 sequence (P27986 whole entry partner): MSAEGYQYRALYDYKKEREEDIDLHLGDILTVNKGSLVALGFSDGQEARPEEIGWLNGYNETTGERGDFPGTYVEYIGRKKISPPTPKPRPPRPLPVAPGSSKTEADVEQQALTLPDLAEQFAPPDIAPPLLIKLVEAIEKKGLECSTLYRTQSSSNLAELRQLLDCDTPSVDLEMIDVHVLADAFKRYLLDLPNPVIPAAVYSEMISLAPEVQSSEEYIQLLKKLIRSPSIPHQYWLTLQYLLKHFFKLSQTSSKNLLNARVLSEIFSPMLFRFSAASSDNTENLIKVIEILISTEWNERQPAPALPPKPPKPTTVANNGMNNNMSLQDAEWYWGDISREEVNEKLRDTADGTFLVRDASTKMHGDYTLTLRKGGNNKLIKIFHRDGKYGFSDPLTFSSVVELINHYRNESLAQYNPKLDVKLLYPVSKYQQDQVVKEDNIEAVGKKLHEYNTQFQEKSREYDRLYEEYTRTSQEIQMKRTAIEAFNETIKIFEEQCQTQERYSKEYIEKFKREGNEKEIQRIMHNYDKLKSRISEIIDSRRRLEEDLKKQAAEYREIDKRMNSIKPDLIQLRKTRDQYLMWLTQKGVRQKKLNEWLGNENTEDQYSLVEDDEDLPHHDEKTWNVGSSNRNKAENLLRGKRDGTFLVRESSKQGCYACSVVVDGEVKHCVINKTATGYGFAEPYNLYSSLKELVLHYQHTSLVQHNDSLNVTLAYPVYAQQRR
Procedure, shortened: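 IC50 came from a variable-slope fit of % inhibition, calculated from the HTRF emission ratio relative to wells with and without enzyme. Reactions with the active enzyme complex ran 30-60 minutes at 25 °C after ATP addition before stop and detection reagents.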

[2] = biological target: T2, PI3Kα (Homo sapiens, UniProt P42336); assay: Mass spectrometry of intact PI3Kα (Johns Hopkins), 3 hr incubation; type: binding; parameters: Johns Hopkins; details: 10× fold excess of compound, MALDI
Protocol: (§1) Mass Spectrometry for PI3K
Intact PI3Kα (Johns Hopkins) was incubated for 3 hr at a 10× fold excess of II-a-45 or II-a-49 to protein. Aliquots (3 μL) of the samples were diluted with 10 μL of 0.1% TFA prior to micro C4 ZipTipping directly onto the MALDI target using Sinapinic acid as the desorption matrix (10 mg/ml in 0.1% TFA:Acetonitrile 50:50).
Target sequence in this assay (P42336 whole entry): as the sequence (P42336 whole entry) above
Target sequence in this assay (P27986 322-600 partner limits assumed): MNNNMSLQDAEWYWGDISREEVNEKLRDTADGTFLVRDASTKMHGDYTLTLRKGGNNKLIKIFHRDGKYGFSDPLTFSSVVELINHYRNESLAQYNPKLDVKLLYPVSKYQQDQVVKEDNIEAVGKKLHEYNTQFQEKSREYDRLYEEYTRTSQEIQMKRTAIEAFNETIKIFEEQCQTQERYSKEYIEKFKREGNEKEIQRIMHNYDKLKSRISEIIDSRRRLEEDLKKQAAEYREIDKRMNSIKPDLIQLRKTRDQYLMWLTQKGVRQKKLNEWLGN

[3] = system: HCT116 cells; assay: HCT-116 cell proliferation assay; type: cell-based; details: Homo sapiens, 72 hours, Cell Titer Glo
Protocol: HCT-116 Cell Proliferation Assay
(§2) For the HCT116 Proliferation Assay, 3000 cells per well were plated in Growth Media (DMEM, 10% FBS, 1% 1-glutamine, 1% penicillin/streptomycin) in 96 well plates. The following day, compounds were added to duplicate wells at concentrations of 10 uM and 3-fold dilutions down to 40 nM. The plates were returned to the incubator for 72 hours and then the assays were developed using Cell Titer Glo (Promega, Madison, Wis.) according to manufacturer's instructions.

[4] = biological target: T3, PI3Kβ (p110β/p85α) (Homo sapiens, UniProt P42338); assay: HTRF assay, potency against active PI3Kβ; type: biochemical; details: [ATP]=50 μM, [di-C8-PIP2]=10 μM, 30 min pre-incubation, read-out: PI3Kβ Inhibition
T3 construct: purchased BPS Bioscience (San Diego, Calif.) or Millipore (Billerica, Mass.)
T3 sequence (P42338 whole entry): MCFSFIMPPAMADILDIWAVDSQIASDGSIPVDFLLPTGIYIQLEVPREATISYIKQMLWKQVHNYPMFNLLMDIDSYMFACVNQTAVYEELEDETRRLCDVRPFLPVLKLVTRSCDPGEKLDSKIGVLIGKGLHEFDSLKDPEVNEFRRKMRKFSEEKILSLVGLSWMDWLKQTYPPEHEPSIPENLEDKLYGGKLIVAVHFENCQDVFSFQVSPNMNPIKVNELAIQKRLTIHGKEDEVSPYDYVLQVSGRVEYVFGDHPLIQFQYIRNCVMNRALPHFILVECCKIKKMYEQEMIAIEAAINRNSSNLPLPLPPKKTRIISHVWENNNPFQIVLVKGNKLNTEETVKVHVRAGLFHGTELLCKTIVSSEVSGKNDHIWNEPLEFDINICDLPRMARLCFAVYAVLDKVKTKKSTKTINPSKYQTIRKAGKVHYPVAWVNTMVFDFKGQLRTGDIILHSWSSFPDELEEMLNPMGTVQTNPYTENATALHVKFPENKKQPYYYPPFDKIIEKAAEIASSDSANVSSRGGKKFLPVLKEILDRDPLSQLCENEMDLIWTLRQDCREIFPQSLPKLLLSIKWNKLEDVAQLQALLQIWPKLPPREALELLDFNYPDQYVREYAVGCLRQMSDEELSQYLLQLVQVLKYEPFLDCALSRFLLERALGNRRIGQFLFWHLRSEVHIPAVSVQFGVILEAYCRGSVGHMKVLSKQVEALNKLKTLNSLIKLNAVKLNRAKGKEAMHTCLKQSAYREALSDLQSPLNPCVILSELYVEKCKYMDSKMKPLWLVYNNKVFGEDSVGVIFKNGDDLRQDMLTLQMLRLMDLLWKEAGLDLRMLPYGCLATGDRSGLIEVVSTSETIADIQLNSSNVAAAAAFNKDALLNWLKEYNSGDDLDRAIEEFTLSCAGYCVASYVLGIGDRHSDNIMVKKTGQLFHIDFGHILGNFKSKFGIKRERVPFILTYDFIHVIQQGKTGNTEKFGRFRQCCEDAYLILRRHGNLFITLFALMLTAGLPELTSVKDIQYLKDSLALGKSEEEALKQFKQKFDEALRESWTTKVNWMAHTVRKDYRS
T3 sequence (P27986 whole entry partner): as the sequence (P27986 whole entry partner) above
Protocol: Homogeneous Time Resolved Fluorescence (HTRF) Assay Protocol for Potency Assessment Against the Active Forms of PI3Kα, PI3Kβ, and PI3Kγ
The mechanics of the assay platform are best described by the vendor (Millipore, Billerica, Mass.) on their website at the following URL: www.millipore.com/coa/tech1/74jt4z.
Briefly, Stop solution (Stop A, #33-007 and Stop B, #33-009; 3:1 ratio) and Detection Mix (from DMC, #33-015 with DMA, #33-011 and DMB, #33-013; 18:1:1 ratio) were prepared as recommended by the manufacturer about 2 hrs prior to use. […] Lipid kinase reactions were started with the addition of 5 μL of ATP solution, mixed for 15 sec on a rotary plate shaker and incubated for 30-60 minutes at 25° C. Next, reactions were stopped with a 5 μL addition of Stop solution immediately followed by a 5 μL volume of Detection Mix. […] At the conclusion of each assay, the HTRF ratio from fluorescence emission values for each well was calculated and % Inhibition determined from averaged controls wells (+/−PI3K enzyme). % Inhibition values for each compound were then plotted against inhibitor concentration to estimate IC50 from log [Inhibitor] vs Response, Variable Slope model in GraphPad Prism from GraphPad Software (San Diego, Calif.).

[5] = biological target: T4, PI3Kγ (p120γ) (Homo sapiens, UniProt P48736); assay: HTRF assay, potency against active PI3Kγ; type: biochemical; details: [ATP]=50 μM, [di-C8-PIP2]=10 μM, 30 min pre-incubation, read-out: PI3Kγ Inhibition
T4 construct: purchased BPS Bioscience (San Diego, Calif.) or Millipore (Billerica, Mass.)
T4 sequence (P48736 whole entry): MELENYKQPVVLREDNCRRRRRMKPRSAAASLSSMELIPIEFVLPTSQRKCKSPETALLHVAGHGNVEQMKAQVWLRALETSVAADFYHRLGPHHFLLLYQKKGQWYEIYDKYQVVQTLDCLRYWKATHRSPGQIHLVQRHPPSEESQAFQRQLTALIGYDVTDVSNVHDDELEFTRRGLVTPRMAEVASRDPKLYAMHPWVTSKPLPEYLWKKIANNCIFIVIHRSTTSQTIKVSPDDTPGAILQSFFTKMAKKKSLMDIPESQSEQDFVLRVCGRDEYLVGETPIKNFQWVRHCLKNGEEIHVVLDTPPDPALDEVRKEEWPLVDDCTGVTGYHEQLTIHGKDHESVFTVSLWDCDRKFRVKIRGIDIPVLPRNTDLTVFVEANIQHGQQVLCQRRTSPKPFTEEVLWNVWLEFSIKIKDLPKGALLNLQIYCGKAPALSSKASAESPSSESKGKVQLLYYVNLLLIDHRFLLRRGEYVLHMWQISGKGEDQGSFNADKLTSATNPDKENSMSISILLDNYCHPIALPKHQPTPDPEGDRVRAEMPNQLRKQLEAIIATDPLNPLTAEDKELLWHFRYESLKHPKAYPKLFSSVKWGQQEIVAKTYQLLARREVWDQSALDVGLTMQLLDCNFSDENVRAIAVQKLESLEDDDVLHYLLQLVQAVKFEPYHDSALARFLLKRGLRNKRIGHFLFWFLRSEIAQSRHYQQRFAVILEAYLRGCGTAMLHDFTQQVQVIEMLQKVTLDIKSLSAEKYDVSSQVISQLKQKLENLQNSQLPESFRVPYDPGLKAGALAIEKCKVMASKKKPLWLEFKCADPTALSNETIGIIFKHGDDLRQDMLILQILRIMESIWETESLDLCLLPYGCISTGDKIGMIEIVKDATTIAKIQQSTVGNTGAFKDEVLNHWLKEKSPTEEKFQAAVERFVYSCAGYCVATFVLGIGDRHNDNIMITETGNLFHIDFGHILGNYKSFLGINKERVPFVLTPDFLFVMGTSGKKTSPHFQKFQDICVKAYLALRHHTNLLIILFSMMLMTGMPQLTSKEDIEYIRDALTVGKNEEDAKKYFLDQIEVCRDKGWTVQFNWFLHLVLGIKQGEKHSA
Procedure, shortened: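 End-point competition HTRF: enzyme (p110β/p85α 0.75 nM; p120γ 2-2.5 nM) with 10 μM di-C8-PIP2 pre-incubated 30 min at 25° C with compound, then 50 μM ATP added for 30-60 min at 25° C. Stopped, detected after 1 and 18 h; IC50 from variable-slope fit.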

[6] = system: PI3K; assay: PI3K HCT116 cellular assay (Western blot); type: cell-based; details: Homo sapiens, HCT-116, HCT116 colon cancer cells, 1 hour incubation, read-out: PI3K Inhibition
Protocol: PI3K HCT116 Cellular Assay
Selected compounds were assayed in HCT116 colon cancer cells. […] Cells were then washed with PBS, lysed and the protein lysates were then recovered and analyzed by Western blot.

[7] = system: SK-OV-3 cells; assay: SK-OV-3 cell proliferation assay; type: cell-based; details: Homo sapiens; SK-OV-3 proliferation, 72 hours, Cell Titer Glo
Protocol: SK-OV-3 Cell Proliferation Assay
as §2, with “SK-OV-3 proliferation” for “HCT116 Proliferation”, “5000” for “3000”

[8] = system: Phospho-Akt(Ser473); assay: Dose response in SKOV3 cells as determined by Western blot; type: cell-based; details: Homo sapiens, SK-OV-3, 1 hr, Phospho-Akt normalized to total Akt, read-out: Immunoblot
Procedure, shortened: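 SKOV3 cells in DMEM/10% FBS were treated with compound in 0.1% DMSO for 1 hr, then lysed. 50 ug protein was immunoblotted for Phospho-Akt(Ser473) and total Akt with fluorescent read-out. Phospho-Akt was normalized to total Akt and expressed as percent of untreated signal.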

[9] = system: SKOV3 cells; assay: GI50 determinations in SKOV3 cells; type: cell-based; details: Homo sapiens, SK-OV-3
Protocol: GI50 Determinations in SKOV3 Cells
A standard curve ranging from 10,000 to 50,000 cells was set up in a separate plate and allowed to adhere to the plate for 4-6 hours, at which time the plate was developed using Cell Titer-Glow (Promega, Madison, Wis.) according to manufacturer's instructions.
The next morning, 3-fold compound dilutions ranging from 10,000 nM to 40 nM were prepared in Proliferation Media containing 1% DMSO. 20 ul of each dilution was added to the SKOV3 cells plated the previous day resulting in a dose response curve from 1000 nM to 4 nM. The cells were incubated for 96 hours and then developed with Cell Titer Glo.
The cell numbers at the end of the assay were determined using the standard curve generated at the start of the assay. Growth inhibition was calculated using the following formulas and GI50s were determined by plotting the % growth inhibition vs. Log compound concentration in GraphPad.
%growth=100×(T−T0)/(C−T0)
T=Cell Number at end of assay T0=Cell Number at start of assay (5000) C=Number of cells in DMSO controls at end of assay
%growth inhibition=100−%growth

[10] = system: Phospho-Akt(Ser473); assay: Dose response in SKOV3 cells as determined by in-cell Western; type: cell-based
Procedure, shortened: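 SKOV3 cells treated with compound for 1 hr, then formaldehyde-fixed, permeabilised and stained overnight for phospho-Akt(Ser473) with anti-tubulin as a reference. Infrared secondary antibodies read at 680 and 800 nm channels by in-cell Western imaging.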

[11] = biological target: p110alpha (Homo sapiens, UniProt P42336); assay: In vitro occupancy in SKOV-3 cells with covalent probe; type: cell-based
Chain of p110alpha (P42336 whole entry): as the sequence (P42336 whole entry) above
Protocol: 150 ug of protein sample was added to a 0.2 ml tube and the volume brought up to 100 ul with IP Buffer from the Protein A/G Plate IP Kit (Pierce Biotechnology, Rockford, Ill.). XIV-a-3 was added at a concentration of 1 uM or XIV-a-4 was added at 50 nM and the tube was incubated at room temperature with rocking for 1 hr.
Protein A/G coated wells from the Protein A/G Plate IP Kit were washed 3× with 200 ul of IP Buffer. […] After incubating at room temperature with shaking for 1 hour, the wells were washed 5× with 200 ul of IP Buffer and the protein samples, preincubated with XIV-a-3, were added to the wells. The wells were incubated overnight at 4° C. with shaking.
The next morning, the wells were washed 5× with 200 ul of IP Buffer. The last wash was allowed to stand for 5 minutes before removal. The immuoprecipitate was eluted from the plate with 40 ul of Pierce Elution Buffer for 30 seconds, after which time the eluate was moved to a 1.5 ml tube containing 4 ul of Pierce Neutralization Buffer. 15 ul of NuPAGE LDS Sample Buffer and 6 ul of NuPAGE Sample Reducing Agent (Invitrogen, Carlsbad, Calif.) were added to each tube and the samples were incubated at 70° C. for 5 minutes.
The blot was rinsed once in water, then incubated for 2 minutes in Qentix Solution 1 (Pierce Biotechnology) followed by 5 rinses in water. The blot was then incubated for 10 minutes in Qentix solution 2, rinsed 5 times in water then blocked in Odyssey Blocking Buffer (Li-Cor) for an hour.
The blot was then incubated overnight at 4° C. with rabbit anti-p110 alpha antibody (Epitomics, Burlingame, Calif.) diluted 1:2500 in PBS/Odyssey Buffer (1:1)+0.1% Tween-20. […]
The blots were washed 2 times for 5 minutes in PBS+0.2% Tween-20, once in distilled water, then scanned on an Odyssey machine (Li-Cor, Lincoln, Nebr.). Band intensity was determined using the Odyssey software and streptavidin (Tool) signal was normalized to total p110 alpha signal within samples, then expressed as a percentage of the untreated signal.

[12] = biological target: T2, PI3Kα; assay: Mass spectrometry of intact PI3Kα (Millipore, 14-602), 1 hr incubation; type: binding; parameters: purchased Millipore 14-602; details: 10× fold excess of compound, MALDI
Protocol: as §1
Target sequence in this assay (P42336 whole entry): as above
Target sequence in this assay (P27986 whole entry partner): as the sequence (P27986 whole entry partner) above
Aliquots (5 μl) of the samples were diluted with 15 μl of 0.2% TFA prior to micro C4 ZipTipping directly onto the MALDI target using Sinapinic acid as the desorption matrix (10 mg/ml in 0.1% TFA:Acetonitrile 50:50).

[13] = system: PI3 kinase; assay: Comparison of covalent and non-covalent inhibitors (Tables 18 and 19): prolonged PD, mechanism
Protocol: “A” designates ≦10 nM; “B” designates 10-100 nM; and “C” designates 100-1000 nM

[14] = SKOV3 cells, 96 hours, Cell Titer Glo
[15] = Homo sapiens, SK-OV-3, SKOV3 cells, 1 hr, read-out: pAKT Inhibition in cell Western
[16] = Homo sapiens, SK-OV-3, Table 18, assay not given, classes agree with Table 23, read-out: EC50 pAkt^Ser473

| SMILES | IC50 [1] | covalent modification of PI3Kα [2] | EC50 [3] | IC50 [4] | IC50 [5] | EC50 [6] | EC50 [7] | also measured |
| --- | --- | --- | --- | --- | --- | --- | --- | --- |
| C=C(C)C(=O)CCC(=O)N1CCN(Cc2cc3nc(-c4cccc5[nH]ncc45)nc(N4CCOCC4)c3s2)CC1 [II-a-43, 1-(4-((2-(1H-indazol-4-yl)-4-morpholinothieno[3,2-d]pyrimidin-6-yl)methyl)piperazin-1-yl)-5-methylhex-5-ene-1,4-dione] | 10 to 100 nM | completely modify | 100 to 1000 nM | > 1000 nM | > 1000 nM | < 20 nM | 100 to 1000 nM | – |
| C=C(C)C(=O)CCC(=O)N1CCN(Cc2cc3nc(-c4cccc(O)c4)nc(N4CCOCC4)c3s2)CC1 [II-a-49, 1-(4-((2-(3-hydroxyphenyl)-4-morpholinothieno[3,2-d]pyrimidin-6-yl)methyl)piperazin-1-yl)-5-methylhex-5-ene-1,4-dione] | 10 to 100 nM | complete modification; also recorded: covalent modification | 100 to 1000 nM | – | > 1000 nM | < 20 nM | 100 to 1000 nM | positive mass shift of PI3Kα [2]: 616 Da |
| C/C=C/C(=O)CCC(=O)N1CCN(Cc2cc3nc(-c4cccc(O)c4)nc(N4CCOCC4)c3s2)CC1 [II-a-50, (E)-1-(4-((2-(3-hydroxyphenyl)-4-morpholinothieno[3,2-d]pyrimidin-6-yl)methyl)piperazin-1-yl)hept-5-ene-1,4-dione] | < 10 nM | completely modify | 100 to 1000 nM | – | > 1000 nM | < 20 nM | 100 to 1000 nM | – |
| CC/C=C/C(=O)CCC(=O)N1CCN(Cc2cc3nc(-c4cccc5[nH]ncc45)nc(N4CCOCC4)c3s2)CC1 [II-a-53, (E)-1-(4-((2-(1H-indazol-4-yl)-4-morpholinothieno[3,2-d]pyrimidin-6-yl)methyl)piperazin-1-yl)oct-5-ene-1,4-dione] | < 10 nM | completely modify | 100 to 1000 nM | – | > 1000 nM | 20 to 100 nM | 100 to 1000 nM | – |
| O=C(/C=C/C1CC1)CCC(=O)N1CCN(Cc2cc3nc(-c4cccc5[nH]ncc45)nc(N4CCOCC4)c3s2)CC1 [II-a-55, (E)-1-(4-((2-(1H-indazol-4-yl)-4-morpholinothieno[3,2-d]pyrimidin-6-yl)methyl)piperazin-1-yl)-6-cyclopropylhex-5-ene-1,4-dione] | 10 to 100 nM | completely modify | 100 to 1000 nM | > 1000 nM | > 1000 nM | 20 to 100 nM | 1000 to 10000 nM | – |
| C=CC(=O)Nc1ccc(CCNC(=O)c2cc3nc(-c4cccc5[nH]ncc45)nc(N4CCOCC4)c3s2)cc1 [II-a-148, N-(4-acrylamidophenethyl)-2-(1H-indazol-4-yl)-4-morpholinothieno[3,2-d]pyrimidine-6-carboxamide] | 100 to 1000 nM | – | – | > 1000 nM | – | – | – | EC50 [8]: ≤ 10 nM; GI50 [9, 14]: 10 to 100 nM; GI50 ([9]; Table 19, assay not given, classes agree with Table 26): 10 to 100 nM; EC50 [10, 15]: 10 to 100 nM; EC50 [10, 16]: 10 to 100 nM; EC50 ([10]; Table 19, assay not given, classes agree with Table 23, read-out: EC50 pAkt^Ser473): 10 to 100 nM; target occupancy (competition with the covalent probe) ([11]; covalent probe XIV-a-3 or XIV-a-4): Dose-dependent target occupancy; EC50 ([11]; read-out: EC50 for occupying p110alpha, covalent probe XIV-a-3 or XIV-a-4): ~40 nM; covalent modification of PI3Kα [12]: complete modification; also recorded: covalent modification; mass shift of PI3Kα [12]: 472 Da; mass shift of PI3Kα, per cent in brackets [12]: 85%; Prolonged PD ([13]; Table 18): Yes; Prolonged PD ([13]; Table 19): Yes |
| CC(C)=CC(=O)CCC(=O)N1CCN(C(=O)c2cc3nc(-c4cccc5[nH]ncc45)nc(N4CCOCC4)c3s2)CC1 [II-a-160, 1-(4-(2-(1H-indazol-4-yl)-4-morpholinothieno[3,2-d]pyrimidine-6-carbonyl)piperazin-1-yl)-6-methylhept-5-ene-1,4-dione] | 100 to 1000 nM | – | – | > 1000 nM | – | – | – | GI50 [9, 14]: 10 to 100 nM |
| CCC(=O)Nc1ccc(CCNC(=O)c2cc3nc(-c4cccc5[nH]ncc45)nc(N4CCOCC4)c3s2)cc1 [II^R-a-148, 2-(1H-indazol-4-yl)-4-morpholino-N-(4-propionamidophenethyl)thieno[3,2-d]pyrimidine-6-carboxamide] | 100 to 1000 nM | – | – | > 1000 nM | > 1000 nM | – | – | EC50 [10, 15]: 100 to 1000 nM; EC50 [10, 16]: 100 to 1000 nM; Prolonged PD ([13]; Table 18): No |
